Results taken from patent US8399462B2, “JNK modulators” (Roche Palo Alto LLC, priority 2006, dated 2013).
Values joined by “and” are separate entries in the source; they are usually repeats but may differ in a detail not shown here. Equal entries are not always repeated.

| SMILES | melting point |
| --- | --- |
| COC1CCCN(C(=O)[C@H]2CC[C@H](Nc3nccc(-n4ccc5c(OCCCS(C)(=O)=O)cccc54)n3)CC2)C1 (stereo partly drawn) [Compound 263, (4-{4-[4-(3-methane-sulfonyl-propoxy)-indol-1-yl]-pyrimidin-2-ylamino}-cyclohexyl)-(3-methoxy-piperidin-1-yl)-methanone] | 121 to 122 °C |
| CS(=O)(=O)CCCOc1cccc2c1ccn2-c1ccnc(N[C@H]2CC[C@H](C(=O)N3CCCC(C#N)C3)CC2)n1 (stereo partly drawn) [Compound 264, 1-(4-{4-[4-(3-methane-sulfonyl-propoxy)-indol-1-yl]-pyrimidin-2-ylamino}-cyclohexane-carbonyl)-piperidine-3-carbonitrile] | 132 to 133 °C |
| CS(=O)(=O)CCCOc1cccc2c1ccn2-c1ccnc(N[C@H]2CC[C@H](C(=O)N3CCC(C#N)CC3)CC2)n1 [Compound 265, 1-(4-{4-[4-(3-methane-sulfonyl-propoxy)-indol-1-yl]-pyrimidin-2-ylamino}-cyclohexane-carbonyl)-piperidine-4-carbonitrile] | 150.5 to 156.5 °C |
| CC(=O)N1CCN(c2cccc3c2ccn3-c2ccnc(N[C@H]3CC[C@H](NS(C)(=O)=O)CC3)n2)CC1 [Compound 267, N-(4-{4-[4-(4-acetyl-piperazin-1-yl)-indol-1-yl]-pyrimidin-2-yl-amino}-cyclohexyl)-methanesulfonamide] | 268 to 269 °C |
| COC1CN(C(=O)[C@H]2CC[C@H](Nc3nccc(-n4ccc5c(OCCCS(C)(=O)=O)cccc54)n3)CC2)C1 [Compound 274, (4-{4-[4-(3-methane-sulfonyl-propoxy)-indol-1-yl]-pyrimidin-2-ylamino}-cyclohexyl)-(3-methoxy-azetidin-1-yl)-methanone] | 162 to 163 °C |
| CN(C)C1CCN(C(=O)[C@H]2CC[C@H](Nc3nccc(-n4ccc5c(OCCCS(C)(=O)=O)cccc54)n3)CC2)CC1 [Compound 275, (4-dimethylamino-piperidin-1-yl)-(4-{4-[4-(3-methanesulfonyl-propoxy)-indol-1-yl]-pyrimidin-2-ylamino}-cyclohexyl)-methanone] | 182.4 to 183 °C and 178.9 to 180.6 °C |
| NS(=O)(=O)CCCOc1cccc2c1cnn2-c1ccnc(N[C@H]2CC[C@H](C(=O)N3CCCC3)CC2)n1 [Compound 276] | 249 to 250 °C |
| CC(C)(O)[C@H]1CC[C@H](Nc2nccc(-n3cc(C(N)=O)c4ccccc43)n2)CC1 [Compound 277, 1-{2-[4-(2-hydroxy-prop-2-yl)-cyclohexyl-amino]-pyrimidin-4-yl}-1H-indole-3-carboxylic acid amide] | 222 to 223 °C |

The next lines start with the values.

| melting point | SMILES |
| --- | --- |
| 200 to 201 °C | CS(=O)(=O)CCCOc1cccc2c1ccn2-c1ccnc(NC2CCC(F)(F)CC2)n1 [Compound 278, (4,4-difluorocyclo-hexyl)-{4-[4-(3-methane-sulfonyl-propoxy)-indol-1-yl]-pyrimidin-2-yl}-amine] |
| 140.7 to 143.3 °C | O=C([C@H]1CC[C@H](Nc2nccc(-n3ccc4c(OCC(F)(F)F)cccc43)n2)CC1)N1CCC(O)CC1 [Compound 279, (4-hydroxy-piperidin-1-yl)-(4-{4-[4-(2,2,2-trifluoroethoxy)-indol-1-yl]-pyrimidin-2-yl-amino}-cyclohexyl)-methanone] |
| 174 to 179.3 °C | CS(=O)(=O)CCCOc1cccc2c1ccn2-c1ccnc(N[C@H]2CC[C@H](NS(=O)(=O)CCCN3CCOCC3)CC2)n1 [Compound 280, 3-morpholin-4-yl-pro-pane-1-sulfonic acid (4-{4-[4-(3-methane-sulfonyl-propoxy)-indol-1-yl]-pyrimidin-2-yl-amino}-cyclohexyl)-amide] |
| 174 to 176.9 °C | CC(C)(O)COc1cccc2c1ccn2-c1ccnc(N[C@H]2CC[C@H](C(=O)N3CCC(O)CC3)CC2)n1 [Compound 281, (4-{4-[4-(2-hydroxy-2-methyl-propoxy)-indol-1-yl]-pyrimidin-2-yl-amino}-cyclohexyl)-(4-hydroxy-piperidin-1-yl)-methanone] |
